29 compounds from ChEMBL document CHEMBL1201862, “PubChem BioAssay data set” (2004) can be followed below.

Calls of active or inactive are those of the source. Bounds are passed on as bounds.

The nature of series [1]: HepG2 cell cytotoxicity, dose response, cytotoxicity control for Shn3 inhibitor project, CellTiter-Glo, cherry-picked (AID 624134). Format: functional, cell-based. On the technique in general: Cellular ATP, detected with luciferase, serves as a proxy for viable cell number.
Series [2] in a line: control 3'UTR Renilla luciferase suppression, dose response, counter-screen for Shn3 inhibitor project, cell-based, Clone20-Shn3RL, cherry-picked (AID 624133). Format: functional. A general note: A counterscreen serves to expose hits that act by an unwanted route or on another target.
Series [3] in a line: Shn3 3'UTR reporter inhibitors, dose response, cell-based, Clone20 osteoblasts, firefly luciferase, cherry-picked (AID 624132).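 Note: firefly luciferase luminescence from reporter carrying the Shn3 3'UTR in osteoblasts.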 The format is functional.
Another series deals with HEK293. In words: inhibitors of LMP1-driven NF-kB reporter, dose response, cell-based, HEK293, luciferase, cherry-pick (AID 588343). Format: functional. Conditions: Homo sapiens.
For series [4], the target named is T1, Carboxy-terminal domain RNA polymerase II polypeptide A small phosphatase 1 (Homo sapiens, UniProt Q9GZU7).
T1 sequence (Q9GZU7 whole entry): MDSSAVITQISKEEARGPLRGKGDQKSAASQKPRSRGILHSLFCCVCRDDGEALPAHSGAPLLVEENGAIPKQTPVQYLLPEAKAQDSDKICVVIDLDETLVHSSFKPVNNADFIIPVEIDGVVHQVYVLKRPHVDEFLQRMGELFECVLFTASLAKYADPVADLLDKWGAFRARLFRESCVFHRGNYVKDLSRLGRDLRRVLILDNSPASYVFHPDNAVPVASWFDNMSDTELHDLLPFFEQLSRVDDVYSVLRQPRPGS
In words: inhibitors of CTDSP1, concentration-response testing, biochemical assay, absorbance-based, actives from ultra-high-throughput screening (AID 540297). Format: functional.

Series [5] concerns the target T2, High affinity choline transporter 1 (Homo sapiens, UniProt Q9GZV3).
T2 sequence (Q9GZV3 whole entry): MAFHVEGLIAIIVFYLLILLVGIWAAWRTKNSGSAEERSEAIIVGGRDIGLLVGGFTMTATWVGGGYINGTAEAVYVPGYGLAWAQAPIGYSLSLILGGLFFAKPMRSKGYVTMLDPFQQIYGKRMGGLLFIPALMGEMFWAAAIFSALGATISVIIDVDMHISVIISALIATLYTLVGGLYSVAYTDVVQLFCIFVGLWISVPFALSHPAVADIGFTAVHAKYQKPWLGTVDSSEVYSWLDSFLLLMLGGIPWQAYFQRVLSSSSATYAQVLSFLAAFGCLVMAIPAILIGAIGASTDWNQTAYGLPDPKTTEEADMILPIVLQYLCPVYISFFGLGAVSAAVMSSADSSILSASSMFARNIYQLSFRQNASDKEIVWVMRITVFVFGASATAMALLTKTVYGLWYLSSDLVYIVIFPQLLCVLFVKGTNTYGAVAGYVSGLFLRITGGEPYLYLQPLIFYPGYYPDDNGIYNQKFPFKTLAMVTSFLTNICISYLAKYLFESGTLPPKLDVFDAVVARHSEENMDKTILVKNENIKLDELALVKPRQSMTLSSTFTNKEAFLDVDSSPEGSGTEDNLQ
Description: CHT inhibitors, dose response, cell-based, 5-point CRC, membrane potential dye (AID 504840). Format: functional.

The target in another series is Cytochrome P450 2C9 (Homo sapiens, UniProt P11712).
Sequence of Cytochrome P450 2C9 (P11712 whole entry): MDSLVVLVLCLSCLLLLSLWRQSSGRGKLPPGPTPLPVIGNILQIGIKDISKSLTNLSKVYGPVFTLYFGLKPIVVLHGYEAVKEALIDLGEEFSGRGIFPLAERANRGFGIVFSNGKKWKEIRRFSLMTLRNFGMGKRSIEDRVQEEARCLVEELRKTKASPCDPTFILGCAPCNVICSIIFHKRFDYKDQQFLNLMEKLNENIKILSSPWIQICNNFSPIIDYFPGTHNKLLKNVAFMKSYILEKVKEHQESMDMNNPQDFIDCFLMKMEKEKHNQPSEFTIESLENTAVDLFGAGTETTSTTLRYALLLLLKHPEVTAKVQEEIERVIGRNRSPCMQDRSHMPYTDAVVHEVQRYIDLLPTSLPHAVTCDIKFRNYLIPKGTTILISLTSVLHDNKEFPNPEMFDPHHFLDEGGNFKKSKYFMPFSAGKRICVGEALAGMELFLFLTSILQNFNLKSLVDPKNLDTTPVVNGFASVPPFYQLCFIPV
Another series deals with T3, Leucine aminopeptidase (Plasmodium falciparum 3D7, UniProt Q8IL11).
T3 sequence (Q8IL11 whole entry): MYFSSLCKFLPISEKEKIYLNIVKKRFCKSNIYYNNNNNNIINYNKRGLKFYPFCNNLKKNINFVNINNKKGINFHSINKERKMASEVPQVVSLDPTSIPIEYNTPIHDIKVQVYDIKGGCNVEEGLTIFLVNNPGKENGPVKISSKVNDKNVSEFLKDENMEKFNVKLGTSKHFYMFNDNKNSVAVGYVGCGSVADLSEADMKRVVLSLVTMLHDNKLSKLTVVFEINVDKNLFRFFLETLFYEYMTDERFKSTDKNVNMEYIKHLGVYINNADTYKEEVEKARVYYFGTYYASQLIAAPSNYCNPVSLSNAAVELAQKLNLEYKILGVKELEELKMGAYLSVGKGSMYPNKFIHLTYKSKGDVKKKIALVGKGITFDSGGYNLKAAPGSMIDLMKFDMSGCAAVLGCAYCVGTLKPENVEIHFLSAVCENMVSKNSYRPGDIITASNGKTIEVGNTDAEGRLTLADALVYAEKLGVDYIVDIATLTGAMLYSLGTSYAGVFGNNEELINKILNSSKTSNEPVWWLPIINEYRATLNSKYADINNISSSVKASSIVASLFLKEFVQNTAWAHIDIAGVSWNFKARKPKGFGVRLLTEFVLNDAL
In words: P. falciparum M17LAP inhibitors, primary screen, biochemical, fluorogenic H-Leu-NHMec substrate, 1536-well (AID 1619). Format: functional.

The next series deals with T4, Cytochrome P450 1A2 (Homo sapiens, UniProt P05177).
T4 sequence (P05177 whole entry): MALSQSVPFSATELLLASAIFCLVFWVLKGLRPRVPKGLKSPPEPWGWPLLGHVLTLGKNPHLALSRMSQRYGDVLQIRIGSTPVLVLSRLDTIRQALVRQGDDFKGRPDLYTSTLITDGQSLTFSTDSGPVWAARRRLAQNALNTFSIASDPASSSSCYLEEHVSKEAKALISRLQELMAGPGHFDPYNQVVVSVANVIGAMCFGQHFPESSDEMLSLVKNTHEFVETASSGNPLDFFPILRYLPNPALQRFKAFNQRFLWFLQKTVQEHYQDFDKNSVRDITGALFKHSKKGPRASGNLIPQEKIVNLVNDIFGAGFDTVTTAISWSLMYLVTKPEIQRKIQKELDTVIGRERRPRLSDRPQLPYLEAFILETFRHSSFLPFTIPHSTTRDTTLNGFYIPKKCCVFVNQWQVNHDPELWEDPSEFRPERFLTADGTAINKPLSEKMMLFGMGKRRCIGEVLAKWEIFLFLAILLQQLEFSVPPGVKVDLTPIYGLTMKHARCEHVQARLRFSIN

Series [6] can be described thus: cytotoxicity in OVCAR8 ovarian cancer cells, dose response, PAX8 project, cell-based, plate reader, dry powder samples (AID 743197). Format: functional. Conditions: OVCAR-8.
The next series deals with Paired box protein Pax-8 (Homo sapiens, UniProt Q06710). In words: inhibitors of PAX8-driven TPO luciferase reporter, dose response, RMG-I cells, cherry-pick (AID 687027).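 Note: luciferase reporter driven by Pax8 target thyroperoxidase promoter measured by SteadyGlo luminescence.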 The format is functional, cell-based. In general terms: In a reporter assay the amount or activity of a reporter protein is the signal.
Sequence of Paired box protein Pax-8 (Q06710 whole entry): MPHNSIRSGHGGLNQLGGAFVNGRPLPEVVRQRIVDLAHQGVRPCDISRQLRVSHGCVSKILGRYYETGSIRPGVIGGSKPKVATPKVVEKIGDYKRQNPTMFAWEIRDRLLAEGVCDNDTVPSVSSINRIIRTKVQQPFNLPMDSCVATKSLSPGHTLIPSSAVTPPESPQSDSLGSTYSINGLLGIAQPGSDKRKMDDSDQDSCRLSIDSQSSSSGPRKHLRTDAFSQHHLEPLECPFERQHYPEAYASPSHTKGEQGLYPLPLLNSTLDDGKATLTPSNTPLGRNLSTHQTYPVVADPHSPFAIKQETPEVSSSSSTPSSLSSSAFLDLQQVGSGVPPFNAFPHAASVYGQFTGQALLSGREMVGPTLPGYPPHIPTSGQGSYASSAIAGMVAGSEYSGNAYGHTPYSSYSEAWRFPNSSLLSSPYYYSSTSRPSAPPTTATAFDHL
In another series the target is Genome polyprotein (dengue virus type 2, UniProt P29990). Description: Dengue-2 NS5 methyltransferase inhibitors, primary screen, biochemical, confirmation dose response (AID 588689). Format: functional.
Sequence of Genome polyprotein (P29990 2492-3391 limits assumed): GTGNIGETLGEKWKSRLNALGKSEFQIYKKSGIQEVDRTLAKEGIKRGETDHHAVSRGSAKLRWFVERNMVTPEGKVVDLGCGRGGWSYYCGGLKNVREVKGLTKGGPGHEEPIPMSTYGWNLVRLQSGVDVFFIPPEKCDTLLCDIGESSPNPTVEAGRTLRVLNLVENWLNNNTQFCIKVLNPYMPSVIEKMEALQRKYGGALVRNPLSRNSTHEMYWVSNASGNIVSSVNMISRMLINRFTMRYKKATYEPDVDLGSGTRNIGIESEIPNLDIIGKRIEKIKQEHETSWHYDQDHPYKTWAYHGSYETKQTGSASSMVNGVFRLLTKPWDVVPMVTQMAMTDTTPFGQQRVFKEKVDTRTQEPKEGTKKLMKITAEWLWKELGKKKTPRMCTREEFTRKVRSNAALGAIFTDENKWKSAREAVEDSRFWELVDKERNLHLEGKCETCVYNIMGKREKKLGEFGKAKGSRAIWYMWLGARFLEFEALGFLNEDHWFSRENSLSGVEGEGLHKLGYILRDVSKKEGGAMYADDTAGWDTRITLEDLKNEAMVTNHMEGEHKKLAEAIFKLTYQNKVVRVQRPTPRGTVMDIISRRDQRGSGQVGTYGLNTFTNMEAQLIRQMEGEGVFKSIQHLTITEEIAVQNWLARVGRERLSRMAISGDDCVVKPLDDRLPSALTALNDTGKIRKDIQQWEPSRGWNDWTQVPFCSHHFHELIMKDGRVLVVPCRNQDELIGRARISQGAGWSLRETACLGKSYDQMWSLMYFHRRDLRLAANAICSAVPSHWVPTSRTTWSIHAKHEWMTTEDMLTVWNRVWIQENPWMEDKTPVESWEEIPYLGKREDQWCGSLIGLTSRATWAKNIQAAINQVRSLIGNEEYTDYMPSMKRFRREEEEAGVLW
Series [7] is described as follows: HEp-2 cell cytotoxicity, dose response, cytotoxicity control for RSV inhibitor project, HTS (AID 2410). Format: functional. Conditions: human respiratory syncytial virus.
A further series concerns INS1. Description: beta cell apoptosis inhibitors, cytokine rescue, dose response, luminescence, retest (AID 449756).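 Note: cell death triggered by IL-1 beta plus TNF-alpha plus IFN-gamma mixture; protective hits raise ATP signal compared with cytokine alone wells.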 Format: functional, cell-based. Conditions: Rattus norvegicus.
The test system of another series is H9c2. Description: cells. The format is functional, cell-based. Conditions: Rattus norvegicus, H9c2, Myocardium.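 Note: confirmatory concentration-response retest of ultra-high-throughput screening hits for modulation of myocardial damage; cell death induced by hydrogen peroxide oxidative stress; compound pretreatment for 60 min then peroxide exposure for 2 h; potency is for protecting the cells against peroxide damage rather than for killing them.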
The nature of series [8]: microbe, parasite or virus in culture. Format: functional. Conditions: Mycobacterium tuberculosis.
Series [9] has as its target Glucose-6-phosphate 1-dehydrogenase (Homo sapiens, UniProt P11413). Description: human G6PD enzyme inhibitors, dose response, selectivity assay for P. falciparum G6PD inhibitor project, biochemical, fluorescence (AID 504792). Format: functional.
Another series has as its target Cytochrome P450 3A4 (Homo sapiens, UniProt P08684).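 Note: CYP3A4 tested as one member of a cytochrome P450 panel screen.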
In series [10] the target is T5, Polyadenylate-binding protein 1 (Homo sapiens, UniProt P11940). In words: PABP1 MLLE–PAM2 binding inhibitor potency, dose response, biochemical, fluorescence polarization, FITC-PAM2 peptide (AID 602259). Conditions: read-out: IC50_Mean. Format: functional.
T5 sequence (P11940 whole entry): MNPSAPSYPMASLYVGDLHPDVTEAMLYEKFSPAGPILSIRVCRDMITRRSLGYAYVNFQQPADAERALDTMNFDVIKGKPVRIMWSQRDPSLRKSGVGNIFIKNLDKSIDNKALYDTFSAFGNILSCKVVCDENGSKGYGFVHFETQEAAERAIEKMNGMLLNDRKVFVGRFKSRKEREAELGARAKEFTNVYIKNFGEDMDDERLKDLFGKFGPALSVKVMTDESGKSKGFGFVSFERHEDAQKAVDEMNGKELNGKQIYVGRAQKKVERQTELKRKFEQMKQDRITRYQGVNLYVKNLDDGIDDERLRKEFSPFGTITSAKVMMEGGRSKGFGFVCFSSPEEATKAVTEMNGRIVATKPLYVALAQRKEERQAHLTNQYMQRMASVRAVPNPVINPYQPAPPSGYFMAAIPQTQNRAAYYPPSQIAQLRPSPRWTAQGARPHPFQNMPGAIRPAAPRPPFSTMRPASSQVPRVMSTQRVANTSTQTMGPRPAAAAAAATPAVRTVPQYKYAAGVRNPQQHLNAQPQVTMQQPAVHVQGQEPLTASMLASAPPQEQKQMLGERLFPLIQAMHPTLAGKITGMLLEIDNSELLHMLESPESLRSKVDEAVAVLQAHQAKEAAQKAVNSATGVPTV
Series [11] has as its target T5, Polyadenylate-binding protein 1. In words: PABP1 MLLE–PAM2 interaction inhibitors, dose response, miRNA deadenylation inhibitor project, biochemical, fluorescence polarization, Cy5-PAM2 peptide, secondary (AID 602260). The format is functional. Conditions: read-out: IC50_Mean.
Series [12] can be described thus: growth suppression of beta-catenin-knockout colon cells, dose response, cell-based, HCT116, human colon tumor (AID 1045).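 Note: HCT116 colon tumor cells with beta catenin knocked out; cells exposed to compound for 60 hours.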 The format is functional.
Series [13] can be described thus: growth suppression of PTEN-null colon cells, dose response, cell-based, HCT116 PTEN knockout (AID 1047).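 Note: HCT116 colon tumor cells with PTEN knocked out; cells exposed to compound for 60 hours before readout; potency for loss of cell viability measured by luminescence.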 The format is functional.

Sequence of Glucose-6-phosphate 1-dehydrogenase (P11413 whole entry): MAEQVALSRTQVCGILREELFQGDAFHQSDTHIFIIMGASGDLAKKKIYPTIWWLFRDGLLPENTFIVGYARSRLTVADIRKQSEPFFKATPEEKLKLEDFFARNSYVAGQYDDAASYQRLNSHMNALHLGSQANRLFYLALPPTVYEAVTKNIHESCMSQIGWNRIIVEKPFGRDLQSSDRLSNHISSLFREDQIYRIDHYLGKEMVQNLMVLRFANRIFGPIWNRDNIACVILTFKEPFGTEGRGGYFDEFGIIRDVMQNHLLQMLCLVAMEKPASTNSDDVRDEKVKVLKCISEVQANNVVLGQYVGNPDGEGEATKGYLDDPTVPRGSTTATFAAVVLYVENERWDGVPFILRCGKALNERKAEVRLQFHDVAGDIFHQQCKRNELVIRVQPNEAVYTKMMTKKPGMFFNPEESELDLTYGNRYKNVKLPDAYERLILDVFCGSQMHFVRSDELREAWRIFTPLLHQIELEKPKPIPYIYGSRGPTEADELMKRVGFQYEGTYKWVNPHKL
Sequence of Cytochrome P450 3A4 (P08684 whole entry): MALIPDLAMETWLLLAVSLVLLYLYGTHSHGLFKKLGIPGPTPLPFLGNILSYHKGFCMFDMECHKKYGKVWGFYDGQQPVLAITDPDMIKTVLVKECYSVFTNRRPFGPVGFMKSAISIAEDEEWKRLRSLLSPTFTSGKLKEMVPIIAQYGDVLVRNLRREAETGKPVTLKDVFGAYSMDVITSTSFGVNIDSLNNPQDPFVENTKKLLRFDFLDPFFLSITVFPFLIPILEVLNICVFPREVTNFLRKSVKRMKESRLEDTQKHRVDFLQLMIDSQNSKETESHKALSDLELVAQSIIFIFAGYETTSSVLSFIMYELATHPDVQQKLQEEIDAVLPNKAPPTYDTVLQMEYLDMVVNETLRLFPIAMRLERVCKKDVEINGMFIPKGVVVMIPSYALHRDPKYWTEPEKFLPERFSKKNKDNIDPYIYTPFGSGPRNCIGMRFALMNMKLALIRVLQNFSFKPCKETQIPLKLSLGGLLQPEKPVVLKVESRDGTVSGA

Usually AC50 stands for the concentration giving half of the maximal activity seen. In the case of `CC(O)(c1ccncc1)c1nc(-c2cccc(C(F)(F)F)c2)cs1` (configuration not stated), the AC50 was > 70 µM (inactive) in [1], 12.5 µM (active) in series [2] and 5.34 µM (active) in [3].
Regarding `COc1ccc(NC(=O)c2ccc(-c3ccccc3)cc2)cc1S(=O)(=O)N1CCOCC1`, the concentration at half-maximal activity (AC50) in the series on HEK293 is 0.698 µM (active).
Take `O=C(O)c1cccc2c1/C(=N/Nc1ccc([N+](=O)[O-])cc1[N+](=O)[O-])c1ccccc1-2`: the IC50 was 30.7 µM (active) in series [4] and 15.2 µM (active) in series [5].
For the compound `Cc1nnc2oc(O)c(C)c(C)c1-2`, on Cytochrome P450 2C9, the AC50 entry is recorded as “inconclusive”.
Take `O=C(c1cn[nH]c1)c1cc(F)ccc1O`: at Leucine aminopeptidase, the IC50 was 20.9 µM (active).
With `c1ccc(CN2CCN(c3nc4ccccc4n4cnnc34)CC2)cc1`, in series [5], the IC50 is 1.82 µM (active).
For `CC(=O)NC1=NC(=O)CS1`, the AC50 entry was “inconclusive” at Cytochrome P450 2C9 and 0.2 µM (inconclusive) at Cytochrome P450 1A2.
In the case of `Cc1ccc(S(=O)(=O)Nc2ccc3c(c2)C(=O)N([C@H](C)CO)C[C@@H](C)[C@H](CN(C)S(=O)(=O)c2ccc(Cl)cc2)OCCCC[C@H](C)O3)cc1`, the AC50 is > 70 µM (inactive) in [6] and 8.13 µM (active) at Paired box protein Pax-8.
Consider `Cc1cccc(NC(=O)c2cc(NC(=O)C3CCCCC3C(=O)O)ccc2N2CCCCC2)c1` (configuration not stated), for which the IC50 on Genome polyprotein is 37.7 µM (active). In addition, the CC50 in series [7] was 15.7 µM (active).
Regarding `COc1ccc(C2(C(=O)Nc3ccc(S(=O)(=O)Nc4nc(C)cc(C)n4)cc3)CCCC2)cc1OC`, the IC50 in series [5] was 12.3 µM (active).
Take `O=C(c1ccoc1)N1CCN(c2cc(-c3cccc(F)c3)nc3cc(-c4cccc(Cl)c4)nn23)CC1`: the AC50 in [1] is > 70 µM (inactive); in [2], 12.9 µM (active); in series [3] it was 9.78 µM (active).
Regarding `CN(C)C1=NC[C@H](Cc2ccccc2)N1CCCC1CCCCC1`, the half-maximal activity concentration (AC50) was 7.42 µM (active) in the series on INS1, 20.3 µM (active) in series [1], 4.98 µM (active) in [2] and 1.47 µM (active) in series [3].
Regarding `CCc1c(C)sc(NC(=O)OC)c1C(N)=O`, the half-maximal activity concentration (AC50) entry on Cytochrome P450 2C9 is recorded as “inconclusive”.
For the compound `C[C@@H]1O[C@H]1P(=O)([O-])[O-].[Na+].[Na+]`, the concentration at half-maximal activity (AC50) entry on Cytochrome P450 2C9 is “inconclusive”.
As to `O=C(O)/C=C/C(=O)c1ccc(O)cc1`, the IC50 on Genome polyprotein is > 100 µM (active).
As to `C=CCn1cc(/C=N\NC(=O)c2cc3c(ccc4ccccc43)o2)c2ccccc21`, the AC50 result at Cytochrome P450 2C9 is recorded as “inconclusive”.
With `O=C(c1c(O)c2ccccc2oc1=O)C1CCCCC1`, the IC50 in [5] is 10 µM (active).
For `c1ccc(-c2cn3c(n2)CCc2ccc4cccnc4c2-3)cc1`, the figures for the IC50 (in the series on H9c2; in series [9]) were > 79 µM (inactive) and > 80 µM (inactive), respectively. Further, in series [8], the CC50 is 22.1 µM (active).
Regarding `CCOc1ccc(NC(=O)CSc2nnc[nH]2)c([N+](=O)[O-])c1`, the IC50 at Leucine aminopeptidase was 5.46 µM (active).
Turning to `CCOC(=O)c1oc2nc(CC(C)C)c3c(c2c1N)CCCC3`, the IC50 in series [5] was 12.9 µM (active).
On to `COc1ccc(C(=O)N[C@H]2CCCCNC2=O)cc1OC1CCN(C(C)C)CC1`, for which the IC50 in series [5] was 15.1 µM (active).
With `Cc1onc(-c2ccccc2Cl)c1C(=O)Nc1nnc(-c2cccc([N+](=O)[O-])c2)s1`, the IC50 in [5] is 19.1 µM (active).
With `COc1ccc(-n2c(C)c(C(C)=O)c3cc(OC(C)=O)ccc32)cc1`, the AC50 in the series on HEK293 is 4.43 µM (active). Moreover, the IC50 in the series on H9c2 is > 79 µM (inactive).
For the compound `NCCSC[C@H](N)C(=O)O`, on Cytochrome P450 2C9, the half-maximal activity concentration (AC50) result is “inconclusive”.
`CCNc1ncc2nc(-c3ccccc3)c(=O)n(Cc3ccc(F)cc3)c2n1`: the AC50 result at Cytochrome P450 2C9 is “inconclusive”; on Cytochrome P450 1A2, 3.16 µM (inconclusive); on Cytochrome P450 3A4 it was 20 µM (inconclusive).
Regarding `Oc1cc(CNC2CCCCC2)c(O)cc1CNC1CCCCC1`, the IC50 on Genome polyprotein is 27.4 µM (active); in [10], 47.7 µM (inactive); in series [11] it was > 66 µM (inactive).
By EC50 is commonly meant the concentration at which the effect is half-maximal. Take `C#CCn1/c(=N/C(=O)c2ccc(S(=O)(=O)N3CCc4ccccc4C3)cc2)sc2cc(S(N)(=O)=O)ccc21`: the EC50 in series [12] is 1.31 µM (active); in series [13], 1.62 µM (active). In addition, the AC50 with INS1 is 2.68 µM (active); in [1], 37.3 µM (active); in [2], 23.9 µM (active); in series [3], 1.29 µM (active).
For `CC[C@]1(C(=O)OC)[C@H]2C(=O)N(Cc3ccccc3)C(=O)[C@H]2[C@H]2CN=C(SCc3ccc(Cl)cc3)N21`, in the series with HEK293, the AC50 was 3.31 µM (active).
Turning to `O=C(NCC(=O)N1CCCC1C(=O)O)OC1CCCCC1` (configuration not stated), the IC50 at Leucine aminopeptidase is 39 µM (active).
